Results from US8168651B2, “Protein kinase modulators” (Cylene Pharmaceuticals, Inc., priority 2008, dated 2012).

Key:
Experiment in all cases: Standardized radiometric kinase assays, percentage of activity at 0.5 μM;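 also: Read-out is ³³P-labelled substrate protein phosphorylated by each kinase, captured on filters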
[1] = target: each individual kinase of the panel (Homo sapiens, UniProt Q16620)
[2] = target: each individual kinase of the panel (Homo sapiens, UniProt P34947)
[3] = target: each individual kinase of the panel (Homo sapiens, UniProt O43318)
[4] = target: each individual kinase of the panel (Mus musculus, UniProt P16277)
[5] = target: each individual kinase of the panel (Homo sapiens, UniProt Q9HBY8)
[6] = target: each individual kinase of the panel (Homo sapiens, UniProt O96017, R145W)
[7] = target: each individual kinase of the panel (Homo sapiens, UniProt Q96RG2)
[8] = target: each individual kinase of the panel (Homo sapiens, UniProt Q12866)
[9] = target: each individual kinase of the panel (Homo sapiens, UniProt P29322)
[10] = target: each individual kinase of the panel (Homo sapiens, UniProt O00418)
[11] = target: each individual kinase of the panel (Homo sapiens, UniProt P52333)
[12] = target: each individual kinase of the panel (Homo sapiens, UniProt P80192)
[13] = target: each individual kinase of the panel (Homo sapiens, UniProt Q04759)
[14] = target: each individual kinase of the panel (Homo sapiens, UniProt P43250)
[15] = target: each individual kinase of the panel (Homo sapiens, UniProt P07948)
[16] = target: each individual kinase of the panel (Homo sapiens, UniProt P53778)
[17] = target: each individual kinase of the panel (Homo sapiens, UniProt Q86Y07)
[18] = target: each individual kinase of the panel (Homo sapiens, UniProt Q96PF2)
[19] = target: each individual kinase of the panel (Homo sapiens, UniProt Q9BXA7)
[20] = target: each individual kinase of the panel (Homo sapiens, UniProt Q13237)
[21] = target: each individual kinase of the panel (Homo sapiens, UniProt O96017, I157T)
[22] = target: each individual kinase of the panel (Homo sapiens, UniProt O96017)
[23] = target: each individual kinase of the panel (Homo sapiens, UniProt P05129)
[24] = target: each individual kinase of the panel (Homo sapiens, UniProt Q9HBH9)
[25] = target: each individual kinase of the panel (Homo sapiens, UniProt P19784)
[26] = target: each individual kinase of the panel (Homo sapiens, UniProt Q9Y3S1)

Chain of each individual kinase of the panel (Homo sapiens, UniProt Q13237) (Q13237 2-762 limits assumed): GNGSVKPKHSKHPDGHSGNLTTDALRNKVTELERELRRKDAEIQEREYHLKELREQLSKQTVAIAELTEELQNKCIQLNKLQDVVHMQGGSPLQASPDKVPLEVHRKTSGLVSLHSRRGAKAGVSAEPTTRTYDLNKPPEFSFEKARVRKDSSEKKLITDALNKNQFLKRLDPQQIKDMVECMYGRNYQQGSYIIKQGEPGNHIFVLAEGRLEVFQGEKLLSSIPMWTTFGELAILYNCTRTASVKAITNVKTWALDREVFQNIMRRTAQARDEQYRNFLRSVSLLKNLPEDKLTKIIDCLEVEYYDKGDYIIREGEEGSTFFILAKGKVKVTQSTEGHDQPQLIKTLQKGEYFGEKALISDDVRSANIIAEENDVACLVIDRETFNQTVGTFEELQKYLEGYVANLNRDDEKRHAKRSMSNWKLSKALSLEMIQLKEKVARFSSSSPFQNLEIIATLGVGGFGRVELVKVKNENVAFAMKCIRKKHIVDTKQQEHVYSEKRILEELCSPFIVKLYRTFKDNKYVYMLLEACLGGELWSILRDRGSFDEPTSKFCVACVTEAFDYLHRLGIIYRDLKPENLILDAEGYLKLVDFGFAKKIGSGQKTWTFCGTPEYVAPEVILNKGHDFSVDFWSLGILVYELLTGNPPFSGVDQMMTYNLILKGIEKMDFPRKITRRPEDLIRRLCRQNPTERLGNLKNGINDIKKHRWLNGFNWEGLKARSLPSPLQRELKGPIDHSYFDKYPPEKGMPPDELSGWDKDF
Chain of each individual kinase of the panel (Homo sapiens, UniProt O00418) (O00418 2-725 limits assumed): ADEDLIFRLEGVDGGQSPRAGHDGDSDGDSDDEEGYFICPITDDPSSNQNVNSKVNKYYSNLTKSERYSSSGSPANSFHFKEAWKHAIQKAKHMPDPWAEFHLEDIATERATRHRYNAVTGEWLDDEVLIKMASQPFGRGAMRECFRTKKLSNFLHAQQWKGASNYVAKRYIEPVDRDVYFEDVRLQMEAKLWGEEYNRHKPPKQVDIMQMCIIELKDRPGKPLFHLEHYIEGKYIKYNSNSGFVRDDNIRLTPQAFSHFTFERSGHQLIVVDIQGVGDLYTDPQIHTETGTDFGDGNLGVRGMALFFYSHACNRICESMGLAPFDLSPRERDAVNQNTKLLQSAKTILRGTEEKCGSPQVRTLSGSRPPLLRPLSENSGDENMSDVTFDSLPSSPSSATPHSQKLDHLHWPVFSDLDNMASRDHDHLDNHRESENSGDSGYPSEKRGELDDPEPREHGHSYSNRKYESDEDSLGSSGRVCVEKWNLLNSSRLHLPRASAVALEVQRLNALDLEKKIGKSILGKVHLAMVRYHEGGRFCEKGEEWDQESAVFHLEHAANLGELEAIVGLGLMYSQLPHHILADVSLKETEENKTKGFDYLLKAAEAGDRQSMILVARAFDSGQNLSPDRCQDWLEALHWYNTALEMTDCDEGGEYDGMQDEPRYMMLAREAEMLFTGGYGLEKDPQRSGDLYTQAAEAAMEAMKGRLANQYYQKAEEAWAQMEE
Chain of each individual kinase of the panel (Homo sapiens, UniProt Q12866) (Q12866 21-999 limits assumed): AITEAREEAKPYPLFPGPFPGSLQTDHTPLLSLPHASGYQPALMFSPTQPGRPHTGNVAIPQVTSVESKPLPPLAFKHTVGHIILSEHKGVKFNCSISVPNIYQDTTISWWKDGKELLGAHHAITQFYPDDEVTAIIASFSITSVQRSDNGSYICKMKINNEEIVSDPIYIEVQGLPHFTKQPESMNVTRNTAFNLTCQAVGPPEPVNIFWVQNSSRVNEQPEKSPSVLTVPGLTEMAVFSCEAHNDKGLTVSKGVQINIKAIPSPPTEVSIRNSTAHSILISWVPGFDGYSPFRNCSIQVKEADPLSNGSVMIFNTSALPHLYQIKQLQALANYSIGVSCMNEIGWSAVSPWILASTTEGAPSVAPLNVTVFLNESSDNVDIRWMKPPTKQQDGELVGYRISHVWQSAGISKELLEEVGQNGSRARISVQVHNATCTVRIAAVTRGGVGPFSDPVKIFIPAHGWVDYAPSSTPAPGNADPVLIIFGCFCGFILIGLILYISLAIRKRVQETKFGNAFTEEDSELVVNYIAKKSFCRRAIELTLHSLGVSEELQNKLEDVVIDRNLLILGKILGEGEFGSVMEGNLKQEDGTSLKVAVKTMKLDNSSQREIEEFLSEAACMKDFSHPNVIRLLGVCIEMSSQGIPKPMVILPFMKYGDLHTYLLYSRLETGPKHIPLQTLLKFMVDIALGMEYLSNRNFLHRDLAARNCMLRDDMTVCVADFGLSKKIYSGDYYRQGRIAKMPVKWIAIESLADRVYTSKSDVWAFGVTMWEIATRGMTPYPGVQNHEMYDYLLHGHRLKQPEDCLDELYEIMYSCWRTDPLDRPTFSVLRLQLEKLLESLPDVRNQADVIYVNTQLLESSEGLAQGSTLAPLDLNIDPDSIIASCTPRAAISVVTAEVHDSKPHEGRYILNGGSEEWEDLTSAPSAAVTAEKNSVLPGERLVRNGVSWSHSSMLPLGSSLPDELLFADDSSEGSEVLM
Chain of each individual kinase of the panel (Homo sapiens, UniProt Q16620) (Q16620 32-822 limits assumed): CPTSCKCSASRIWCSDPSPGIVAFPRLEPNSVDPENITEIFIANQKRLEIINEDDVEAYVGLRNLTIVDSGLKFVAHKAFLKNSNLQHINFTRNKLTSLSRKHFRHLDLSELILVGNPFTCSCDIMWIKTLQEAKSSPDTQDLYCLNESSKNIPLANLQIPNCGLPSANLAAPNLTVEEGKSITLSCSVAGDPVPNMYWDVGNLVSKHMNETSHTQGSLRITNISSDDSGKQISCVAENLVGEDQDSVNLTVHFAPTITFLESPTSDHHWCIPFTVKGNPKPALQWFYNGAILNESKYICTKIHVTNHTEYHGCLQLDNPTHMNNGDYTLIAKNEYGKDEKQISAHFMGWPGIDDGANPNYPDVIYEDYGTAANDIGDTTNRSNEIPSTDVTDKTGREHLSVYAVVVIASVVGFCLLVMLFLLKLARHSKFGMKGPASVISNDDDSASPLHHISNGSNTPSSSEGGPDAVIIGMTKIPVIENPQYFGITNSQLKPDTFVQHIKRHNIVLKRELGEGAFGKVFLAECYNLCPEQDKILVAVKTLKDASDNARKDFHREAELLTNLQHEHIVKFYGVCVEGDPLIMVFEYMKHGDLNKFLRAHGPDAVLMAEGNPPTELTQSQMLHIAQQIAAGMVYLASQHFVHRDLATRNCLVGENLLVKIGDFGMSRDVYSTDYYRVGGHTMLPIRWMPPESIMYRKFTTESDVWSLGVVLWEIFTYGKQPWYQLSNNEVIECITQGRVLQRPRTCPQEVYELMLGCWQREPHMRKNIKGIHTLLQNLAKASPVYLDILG
Chain of each individual kinase of the panel (Homo sapiens, UniProt P29322) (P29322 28-1005 limits assumed): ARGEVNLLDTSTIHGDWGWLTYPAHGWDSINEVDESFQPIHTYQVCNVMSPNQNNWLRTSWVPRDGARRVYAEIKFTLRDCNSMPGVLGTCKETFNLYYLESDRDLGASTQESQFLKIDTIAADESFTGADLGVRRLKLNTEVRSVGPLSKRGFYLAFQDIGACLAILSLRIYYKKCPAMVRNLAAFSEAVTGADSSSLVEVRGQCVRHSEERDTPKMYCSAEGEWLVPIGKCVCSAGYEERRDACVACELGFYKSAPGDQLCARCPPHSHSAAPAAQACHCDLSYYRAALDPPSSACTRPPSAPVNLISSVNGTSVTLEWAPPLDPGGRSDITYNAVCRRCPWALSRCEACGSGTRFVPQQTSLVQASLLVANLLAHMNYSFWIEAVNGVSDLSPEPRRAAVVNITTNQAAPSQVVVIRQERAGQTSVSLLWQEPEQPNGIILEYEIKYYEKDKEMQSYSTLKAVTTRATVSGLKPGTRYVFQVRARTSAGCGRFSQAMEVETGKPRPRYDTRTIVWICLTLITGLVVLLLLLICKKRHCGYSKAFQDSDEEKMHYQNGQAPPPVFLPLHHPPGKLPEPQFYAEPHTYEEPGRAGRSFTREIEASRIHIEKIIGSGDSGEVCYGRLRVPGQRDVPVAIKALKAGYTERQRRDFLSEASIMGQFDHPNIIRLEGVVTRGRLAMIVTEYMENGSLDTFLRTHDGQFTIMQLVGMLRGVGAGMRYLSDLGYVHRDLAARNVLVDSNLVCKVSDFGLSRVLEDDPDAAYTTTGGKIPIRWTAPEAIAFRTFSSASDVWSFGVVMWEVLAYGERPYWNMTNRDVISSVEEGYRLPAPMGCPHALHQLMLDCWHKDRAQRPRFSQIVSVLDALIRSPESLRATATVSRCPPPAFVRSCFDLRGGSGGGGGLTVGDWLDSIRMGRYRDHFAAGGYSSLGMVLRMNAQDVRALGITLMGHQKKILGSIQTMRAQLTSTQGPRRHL
Chain of each individual kinase of the panel (Mus musculus, UniProt P16277) (P16277 2-499 limits assumed): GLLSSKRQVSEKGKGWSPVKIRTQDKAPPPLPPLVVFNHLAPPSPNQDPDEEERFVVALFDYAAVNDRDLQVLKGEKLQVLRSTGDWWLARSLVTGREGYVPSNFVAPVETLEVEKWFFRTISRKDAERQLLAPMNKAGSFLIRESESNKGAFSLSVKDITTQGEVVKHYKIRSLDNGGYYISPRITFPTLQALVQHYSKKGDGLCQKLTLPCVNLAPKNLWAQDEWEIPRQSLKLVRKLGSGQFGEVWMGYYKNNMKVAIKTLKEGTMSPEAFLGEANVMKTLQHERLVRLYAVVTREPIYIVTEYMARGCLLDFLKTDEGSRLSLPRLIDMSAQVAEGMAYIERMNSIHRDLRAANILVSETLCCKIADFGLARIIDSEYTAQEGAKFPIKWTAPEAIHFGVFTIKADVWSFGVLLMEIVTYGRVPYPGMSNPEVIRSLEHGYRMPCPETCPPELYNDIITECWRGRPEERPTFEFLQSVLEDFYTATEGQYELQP

O=C(O)c1ccc2c(c1)nc(Nc1cccc(Cl)c1)c1ccncc12 [drawing 1136]
TRKB percentage of activity [1]: 24%
GRK5 percentage of activity [2]: 74%
TAK1 percentage of activity [3]: 4%
Blk(m) percentage of activity [4]: 14%
SGK2 percentage of activity [5]: 4%
CHK2(R145W) (h) percentage of activity [6]: 6%
PASK percentage of activity [7]: 85%
MER percentage of activity [8]: 82%
EPHA8 percentage of activity [9]: −10%
eEF−2K(h) percentage of activity [10]: 3%
JAK3 percentage of activity [11]: 37%
MLK1 percentage of activity [12]: 43%
PRKCT percentage of activity [13]: −3%
GRK6 percentage of activity [14]: 44%
LYN percentage of activity [15]: 13%
p38-gamma percentage of activity [16]: 21%
VRK2 percentage of activity [17]: −3%
TSSK2 percentage of activity [18]: −11%
TSSK1 percentage of activity [19]: −12%
PRKG2 percentage of activity [20]: −10%
CHK2(1157T) (h) percentage of activity [21]: 15%
CHK2 percentage of activity [22]: 20%
PRKCG percentage of activity [23]: 6%
Mnk2 percentage of activity [24]: 79%
CK2 alpha 2 percentage of activity [25]: 103%
WNK2 percentage of activity [26]: 4%
